Source: the supplement of paper PMC10307832

Each cell line was assayed with CC(C)(C)c1cc(NC(=O)Nc2ccc(-c3cn4c(n3)sc3cc(OCCN5CCOCC5)ccc34)cc2)no1 [Quizartinib] + CC(=O)c1c(C)c2cnc(Nc3ccc(N4CCNCC4)cn3)nc2n(C2CCCC2)c1=O [Palbociclib] (partner 0.5 µM) (assay: relative viability (nuclei count vs DMSO), 5 days (fraction); higher = more cells survive). Settings: first compound 0.001 µM.
Summary of the method: (§1)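 Lung cancer cell lines in 1536-well plates were dosed by pin tool the day after seeding, either with one drug alone or with a fixed anchor-drug dose plus five library-drug doses (not always all listed) in √10 steps. After 5 days, cells were fixed and their nuclei stained in one step (final 0.05% Triton X-100, 1% formaldehyde, 1 ug/ml Hoechst), then counted on 4× images. Relative viability is the nuclei count in treated wells divided by that in vehicle wells. Values are medians of duplicate plates.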

Cell Line	relative viability
BEN	0.388
PC-3 [JPC-3]	0.531
LC-2-ad	0.4
NCI-H522	0.898

Same assay, conditions: first compound 0.003162 µM

Cell Line	relative viability
BEN	0.427
PC-3 [JPC-3]	0.545
LC-2-ad	0.518
NCI-H522	0.995

Same assay, conditions: first compound 0.01 µM

Cell Line	relative viability
BEN	0.544
PC-3 [JPC-3]	0.598
LC-2-ad	0.528
NCI-H522	1.01

Same assay, conditions: first compound 0.03162 µM

Cell Line	relative viability
BEN	0.472
PC-3 [JPC-3]	0.588
LC-2-ad	0.508
NCI-H522	1.34

Same assay, conditions: first compound 0.1 µM

Cell Line	relative viability
BEN	0.503
PC-3 [JPC-3]	0.504
LC-2-ad	0.461
NCI-H522	0.977

These cell lines were tested with COCC[n+]1c2c(n(Cc3cnccn3)c1C)C(=O)c1ccccc1C2=O [YM155] + N=C(N)NC(=N)NCCc1ccccc1 [Phenformin] (partner 250 µM) in the same assay as above. Settings: first compound 0.002 µM.
Summary of the method: as §1

Cell Line	relative viability
BEN	0.28
PC-3 [JPC-3]	0.454
LC-2-ad	0.528
NCI-H522	0.67

Same assay, conditions: first compound 0.006325 µM

Cell Line	relative viability
BEN	0.258
PC-3 [JPC-3]	0.521
LC-2-ad	0.616
NCI-H522	0.604

Same assay, conditions: first compound 0.02 µM

Cell Line	relative viability
BEN	0.227
PC-3 [JPC-3]	0.475
LC-2-ad	0.581
NCI-H522	0.628

Same assay, conditions: first compound 0.06325 µM

Cell Line	relative viability
BEN	0.266
PC-3 [JPC-3]	0.473
LC-2-ad	0.535
NCI-H522	0.659

Each cell line was assayed with CC(C)(C)c1cc(NC(=O)Nc2ccc(-c3cn4c(n3)sc3cc(OCCN5CCOCC5)ccc34)cc2)no1 [Quizartinib] + COc1cccc2cc(-c3nc([C@H]4CC[C@H](C(=O)O)CC4)n4ncnc(N)c34)[nH]c12 [OSI-027] (partner 0.5 µM) in the same assay as above. Settings: first compound 0.001 µM.
Summary of the method: as §1

Cell Line	relative viability
BEN	0.259
PC-3 [JPC-3]	0.692
LC-2-ad	0.842
NCI-H522	0.649

Same assay, conditions: first compound 0.003162 µM

Cell Line	relative viability
BEN	0.326
PC-3 [JPC-3]	0.747
LC-2-ad	0.866
NCI-H522	0.764

Same assay, conditions: first compound 0.01 µM

Cell Line	relative viability
BEN	0.325
PC-3 [JPC-3]	0.782
LC-2-ad	0.757
NCI-H522	0.694

Same assay, conditions: first compound 0.03162 µM

Cell Line	relative viability
BEN	0.282
PC-3 [JPC-3]	0.757
NCI-H522	0.702

Same assay, conditions: first compound 0.1 µM

Cell Line	relative viability
BEN	0.284
PC-3 [JPC-3]	0.698
LC-2-ad	0.626
NCI-H522	0.762

These cell lines were tested with CC(C)(C)c1cc(NC(=O)Nc2ccc(-c3cn4c(n3)sc3cc(OCCN5CCOCC5)ccc34)cc2)no1 [Quizartinib] + N=C(N)NC(=N)NCCc1ccccc1 [Phenformin] (partner 250 µM) in the same assay as above. Settings: first compound 0.001 µM.
Summary of the method: as §1

Cell Line	relative viability
BEN	0.271
PC-3 [JPC-3]	0.453
LC-2-ad	0.498
NCI-H522	0.591

Same assay, conditions: first compound 0.003162 µM

Cell Line	relative viability
BEN	0.279
PC-3 [JPC-3]	0.466
LC-2-ad	0.639
NCI-H522	0.652

Same assay, conditions: first compound 0.01 µM

Cell Line	relative viability
BEN	0.272
PC-3 [JPC-3]	0.469
LC-2-ad	0.579
NCI-H522	0.645

Same assay, conditions: first compound 0.03162 µM

Cell Line	relative viability
BEN	0.243
PC-3 [JPC-3]	0.481
NCI-H522	0.622

Same assay, conditions: first compound 0.1 µM

Cell Line	relative viability
BEN	0.26
PC-3 [JPC-3]	0.506
LC-2-ad	0.502
NCI-H522	0.542
